Source: the NIST ThermoML archive (doi:10.1016/j.tca.2008.10.015)

Assays:
[1] = 101.33 kPa, Liquid, conductivity meter
[2] = molar heat capacity at constant pressure; conditions: 101.33 kPa, Liquid, Small sample (50 mg) DSC

CCCCn1cc[n+](C)c1.COS(=O)(=O)[O-] [1-butyl-3-methylimidazolium methyl sulfate]
Conditions	electrical conductivity, [1] [S/m]	molar heat capacity at constant pressure, [2] [J/K/mol]
303.2 K	0.217	375.47
308.2 K	0.276	380.48
313.2 K	0.348	382.98
318.2 K	0.43	382.98
323.2 K	0.522	385.49
328.2 K	0.626	387.99
333.2 K	0.741	390.49
338.2 K	0.867	393
343.2 K	1.01	393
348.2 K	1.32	398
353.2 K	1.67	398
358.2 K	–	400.51

CCCCn1cc[n+](C)c1.F[P-](F)(F)(F)(F)F [1-butyl-3-methylimidazolium hexafluorophosphate]
Conditions	electrical conductivity, [1] [S/m]	molar heat capacity at constant pressure, [2] [J/K/mol]
303.2 K	0.114	412.06
308.2 K	0.149	417.75
313.2 K	0.193	420.59
318.2 K	0.245	423.43
323.2 K	0.308	423.43
328.2 K	0.383	426.27
333.2 K	0.468	429.12
338.2 K	0.556	431.96
343.2 K	0.664	434.8
348.2 K	0.917	440.48
353.2 K	1.21	443.32
358.2 K	–	443.32

CCCCn1cc[n+](C)c1.O=S(=O)([O-])C(F)(F)F [1-butyl-3-methylimidazolium trifluoromethanesulfonate]
Conditions	electrical conductivity, [1] [S/m]	molar heat capacity at constant pressure, [2] [J/K/mol]
303.2 K	0.23	443.96
308.2 K	0.286	443.96
313.2 K	0.358	446.85
318.2 K	0.437	449.73
323.2 K	0.521	452.61
328.2 K	0.619	452.61
333.2 K	0.724	455.5
338.2 K	0.841	458.38
343.2 K	0.967	461.26
348.2 K	1.25	464.14
353.2 K	1.57	467.03
358.2 K	–	469.91

CCCCn1cc[n+](C)c1.F[B-](F)(F)F [1-butyl-3-methylimidazolium tetrafluoroborate]
Conditions	electrical conductivity, [1] [S/m]	molar heat capacity at constant pressure, [2] [J/K/mol]
303.2 K	0.295	368.42
308.2 K	0.364	370.68
313.2 K	0.446	372.94
318.2 K	0.542	375.2
323.2 K	0.651	377.46
328.2 K	0.783	379.72
333.2 K	0.926	381.98
338.2 K	1.08	384.24
343.2 K	1.25	386.5
348.2 K	1.67	388.76
353.2 K	2.18	391.02
358.2 K	–	393.28
